Results: US7157430B2, “(Substituted)acyl dipeptidyl inhibitors of the ICE/CED-3 family of cysteine proteases” (Idun Pharmaceuticals, Inc., priority 1998, dated 2007)
Read-outs that look alike come from different tables or passages of the source.

Key:
Assay type in all cases: biochemical
MCH-3 = target: T1, MCH-3 (Homo sapiens, UniProt P55210); experiment: Fluorescence enzyme assay, IC50 determination, Mch3
T1 sequence (P55210 24-198 limits assumed): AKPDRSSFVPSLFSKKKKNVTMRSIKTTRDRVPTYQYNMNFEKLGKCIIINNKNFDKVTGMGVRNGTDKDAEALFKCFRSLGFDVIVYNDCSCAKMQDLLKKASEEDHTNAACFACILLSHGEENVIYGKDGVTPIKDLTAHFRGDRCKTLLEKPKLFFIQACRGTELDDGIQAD
T1 sequence (P55210 207-303 limits assumed): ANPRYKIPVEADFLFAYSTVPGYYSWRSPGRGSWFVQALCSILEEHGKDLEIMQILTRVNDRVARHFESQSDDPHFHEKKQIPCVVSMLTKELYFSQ
Method: (§1) Fluorescence enzyme assays detecting the activity of the compounds of Formula 1 utilizing the recombinant ICE and CPP32 enzymes are performed essentially according to Thornberry et al. (Nature, 356:768:774 (1992)) and Nicholson et al. (Nature, 376:37–43 (1995)) respectively, (herein incorporated by reference) in 96 well microtiter plates. The substrate is Acetyl-Tyr-Val-Ala-Asp-amino-4-methylcoumarin (AMC) for the ICE assay and Acetyl-Asp-Glu-Val-Asp-amino-4-methylcoumarin for the CPP32, Mch2, Mch3 and Mch5 assays. Enzyme reactions are run in ICE buffer (25 mM HEPES, 1 mM EDTA, 0.1% CHAPS, 10% sucrose, pH 7.5) containing 2 mM DTT at room temperature in duplicate.
(§2) The enzyme and the compound of Formula I to be assayed are allowed to preincubate in the microtitre plate wells for 30 minutes at room temperature prior to the addition of substrate to initiate the reaction. Fluorescent AMC product formation is monitored for one hour at room temperature by measuring the fluorescence emission at 460 nm using an excitation wavelength of 360 nm. The fluorescence change in duplicate (control) wells are averaged and the mean values are plotted as a function of inhibitor concentration to determine the inhibitor concentration producing 50% inhibition (IC50). The results of this assay are set forth below in Table 1 and in Table 3 (for Table 3, see Examples 11 through 52).
(§3) The reference compound for this assay was Cbz-ValAlaAsp-H and the values are denoted in Table 1 as “Reference”.

CPP32 = target: T2, CPP32 (Homo sapiens, UniProt P42574); experiment: Fluorescence enzyme assay, IC50 determination, CPP32
T2 sequence (P42574 29-175 limits assumed): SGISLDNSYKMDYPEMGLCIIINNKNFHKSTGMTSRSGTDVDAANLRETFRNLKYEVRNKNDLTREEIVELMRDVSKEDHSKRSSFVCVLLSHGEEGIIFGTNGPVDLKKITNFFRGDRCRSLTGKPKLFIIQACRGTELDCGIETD
T2 sequence (P42574 176-277 limits assumed): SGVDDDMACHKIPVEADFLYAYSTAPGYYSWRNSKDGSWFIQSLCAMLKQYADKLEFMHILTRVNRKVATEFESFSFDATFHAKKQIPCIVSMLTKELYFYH
Method: as §1, §2, §3

MCH-2 = target: T3, MCH-2 (Homo sapiens, UniProt P55212); experiment: Fluorescence enzyme assay, IC50 determination, Mch2
T3 sequence (P55212 24-179 limits assumed): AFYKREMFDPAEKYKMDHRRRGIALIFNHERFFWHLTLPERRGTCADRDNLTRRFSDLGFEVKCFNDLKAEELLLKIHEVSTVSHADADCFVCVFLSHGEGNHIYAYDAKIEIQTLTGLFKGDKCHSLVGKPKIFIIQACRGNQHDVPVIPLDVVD
T3 sequence (P55212 194-293 limits assumed): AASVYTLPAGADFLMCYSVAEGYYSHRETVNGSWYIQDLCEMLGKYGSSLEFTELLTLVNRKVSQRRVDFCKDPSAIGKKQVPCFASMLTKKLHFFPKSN
Method: as §1, §2, §3

MCH-5 = MCH-5 (Homo sapiens, UniProt Q14790); experiment: Fluorescence enzyme assay, IC50 determination, Mch5
MCH-5, sequence (Q14790 217-374 limits assumed, species assumed): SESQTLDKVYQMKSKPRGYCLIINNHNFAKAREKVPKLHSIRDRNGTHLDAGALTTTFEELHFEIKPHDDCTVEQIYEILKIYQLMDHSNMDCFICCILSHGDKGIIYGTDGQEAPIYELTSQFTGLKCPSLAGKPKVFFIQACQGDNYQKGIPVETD
MCH-5, sequence (Q14790 385-479 limits assumed, species assumed): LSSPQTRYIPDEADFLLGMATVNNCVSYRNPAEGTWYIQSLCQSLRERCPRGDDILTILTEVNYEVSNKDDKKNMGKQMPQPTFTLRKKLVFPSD
Method: as §1, §2, §3

mICE = target: T4, mICE (Mus musculus, UniProt P29452); experiment: Fluorescence enzyme assay, IC50 determination, ICE
T4 sequence (P29452 123-296 limits assumed): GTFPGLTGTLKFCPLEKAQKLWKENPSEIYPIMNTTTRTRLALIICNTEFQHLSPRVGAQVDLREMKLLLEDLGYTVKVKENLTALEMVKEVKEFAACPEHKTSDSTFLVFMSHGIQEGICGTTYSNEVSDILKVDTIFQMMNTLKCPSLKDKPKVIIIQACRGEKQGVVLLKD
T4 sequence (P29452 315-402 limits assumed): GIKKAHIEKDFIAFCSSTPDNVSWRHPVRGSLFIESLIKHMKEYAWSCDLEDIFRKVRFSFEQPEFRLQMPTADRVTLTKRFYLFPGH
Method: as §1, §2, §3

[1] = Table 3, method of Preparation 3A, read-out: MCH3 I50
[2] = Table 3, method of Preparation 3A, read-out: CPP32 I50
[3] = Table 3, method of Preparation 3A, read-out: MCH2 I50
[4] = Table 3, method of Preparation 3A, read-out: MCH5 I50
[5] = Table 3, method of Preparation 3A, read-out: mICE I50
[6] = Ac-DEVD-AMC substrate, 30 min preincubation, room temperature, read-out: MCH-3 IC50
[7] = recombinant enzyme, Ac-DEVD-AMC substrate, 30 min preincubation, room temperature, read-out: CPP32 IC50
[8] = Ac-DEVD-AMC substrate, 30 min preincubation, room temperature, read-out: MCH-2 IC50
[9] = Ac-DEVD-AMC substrate, 30 min preincubation, room temperature, read-out: MCH-5 IC50
[10] = recombinant enzyme, Ac-YVAD-AMC substrate, 30 min preincubation, room temperature, read-out: mICE IC50

Row | Compound | IC50 (MCH-3; [1]) [nM] | IC50 (CPP32; [2]) [nM] | IC50 (MCH-2; [3]) [nM] | IC50 (MCH-5; [4]) [nM] | IC50 (mICE; [5]) [nM] | IC50 (MCH-3; [6]) [nM] | IC50 (CPP32; [7]) [nM] | IC50 (MCH-2; [8]) [nM] | IC50 (MCH-5; [9]) [nM] | IC50 (mICE; [10]) [nM]
1 | CC(C)C[C@H](NC(=O)COc1cccc2ccccc12)C(=O)N[C@H](C=O)CC(=O)O [Example 12] | 1950 | 139 | 846 | 821 | 597 | – | – | – | – | –
2 | CC(C)C[C@H](NC(=O)COc1ccccc1)C(=O)N[C@H](C=O)CC(=O)O [Example 38] | > 10000 | 3400 | > 50000 | > 10000 | > 10000 | – | – | – | – | –
3 | CC(C)C[C@H](NC(=O)CSc1ccc2ccccc2c1)C(=O)N[C@H](C=O)CC(=O)O [Example 17] | 2520 | 269 | 3160 | 11000 | 792 | – | – | – | – | –
4 | CC(C)C[C@H](NC(=O)COc1ccccc1OCc1ccccc1)C(=O)N[C@H](C=O)CC(=O)O [Example 45] | 2200 | 222 | 9750 | 4340 | 2400 | – | – | – | – | –
5 | CC(C)C[C@H](NC(=O)C(C)CC(=O)c1cccc2ccccc12)C(=O)N[C@H](C=O)CC(=O)O (stereo partly shown) [Example 20] | 29800 | 9880 | 24900 | 3250 | 4550 | – | – | – | – | –
6 | CC(C)C[C@H](NC(=O)CCCc1ccc2ccccc2c1)C(=O)N[C@H](C=O)CC(=O)O [Example 18] | 18200 | 2760 | 14500 | > 50000 | 1800 | – | – | – | – | –
7 | CC(C)C[C@H](NC(=O)COc1ccccc1-c1ccccc1)C(=O)N[C@H](C=O)CC(=O)O [Example 39] | 2020 | 95 | 717 | 1710 | 636 | – | – | – | – | –
8 | O=C[C@H](CC(=O)O)NC(=O)[C@@H]1Cc2ccccc2N1C(=O)COc1cccc2ccccc12 [Example 186, (2′S,3S)-3-[N-((1-Naphthyloxy)Acetyl)Indoline-2′-Carbonyl]Amino-4-Oxobutanoic Acid] | – | – | – | – | – | > 50000 | 25300 | > 50000 | 39800 | 298
9 | CC(C)[C@H](NC(=O)COc1cccc2c(NS(=O)(=O)C(F)(F)F)cccc12)C(=O)N[C@H](C=O)CC(=O)O [Example 188, (3S)-3-[N-((5′-Trifluoromethylsulfonylamino-1′-Naphthyloxy)Acetyl)Valinyl]Amino-4-Oxobutanoic Acid] | – | – | – | – | – | 11000 | 207 | 1010 | 615 | 127
10 | CC(C)C[C@H](NC(=O)COc1ccnc2ccccc12)C(=O)N[C@H](C=O)CC(=O)O [Example 31] | 4570 | 232 | > 50000 | > 50000 | 35300 | – | – | – | – | –
11 | CC(C)C[C@H](NC(=O)CSc1cccc2ccccc12)C(=O)N[C@H](C=O)CC(=O)O [Example 16] | 1740 | 195 | 1430 | 7420 | 2750 | – | – | – | – | –
12 | CC(C)C[C@H](NC(=O)CCC(=O)c1cccc2ccccc12)C(=O)N[C@H](C=O)CC(=O)O [Example 19] | 11300 | 967 | 11800 | 11200 | 408 | – | – | – | – | –
13 | CC(C)C[C@H](NC(=O)COc1ccc2c(c1)CCCC2)C(=O)N[C@H](C=O)CC(=O)O [Example 52] | 2310 | 162 | 28600 | 4950 | 2570 | – | – | – | – | –
14 | CC(C)C[C@H](NC(=O)COc1cccc2c1OC(C)(C)C2)C(=O)N[C@H](C=O)CC(=O)O [Example 10, (3S)-3-[N-((2,3-Dihydro-2,2-Dimethyl-Benzofuranyloxy)Acetyl)Leucinyl]Amino-4-Oxobutanoic Acid] | – | – | – | – | – | 2320 | 241 | 13100 | 6340 | 6340
15 | CC(C)C[C@H](NC(=O)COc1c(Cl)cc(Cl)c2ccccc12)C(=O)N[C@H](C=O)CC(=O)O [Example 29] | 3610 | 357 | 21400 | 3040 | 141 | – | – | – | – | –
16 | CC(C)C[C@H](NC(=O)CCOc1ccc2ccccc2c1)C(=O)N[C@H](C=O)CC(=O)O [Example 23] | 9650 | 910 | 5900 | 15200 | 1320 | – | – | – | – | –
17 | CC(C)C[C@H](NC(=O)COc1ccccc1Cc1ccccc1)C(=O)N[C@H](C=O)CC(=O)O [Example 42] | 3360 | 490 | 10100 | 6050 | 521 | – | – | – | – | –
18 | CC(C)[C@H](NC(=O)COc1c(C(=O)O)ccc2ccccc12)C(=O)N[C@H](C=O)CC(=O)O [Example 6, (3S)-3-[N-((2′-Carboxy-1′-Naphthyloxy)Acetyl)Valinyl]Amino-4-Oxobutanoic Acid] | – | – | – | – | – | 1650 | 54 | 1430 | 48 | 385
19 | CC(C)C[C@H](NC(=O)COc1cccc2cnccc12)C(=O)N[C@H](C=O)CC(=O)O [Example 33] | 3480 | 407 | 42700 | 3640 | 5140 | – | – | – | – | –
20 | CC(C)C[C@H](NC(=O)CCC(=O)c1ccc2ccccc2c1)C(=O)N[C@H](C=O)CC(=O)O [Example 21] | 7430 | 1420 | 10300 | 5230 | 543 | – | – | – | – | –
